Source: ChEMBL document CHEMBL1143375 (Bioorg Med Chem Lett, 2009)
pIC50: −log10 of the molar value.

Tests used:
[1] = Inhibition of potato LOX5; set-up: species or system Solanum tuberosum
Rattus norvegicus = assay: Antiinflammatory activity in orally dosed rat assessed as inhibition of carrageenan-induced paw edema after 3 hrs; format: functional; conditions: po
[2] = molecular target: T1, Prostaglandin G/H synthase 2 (Homo sapiens, UniProt P35354); assay: Inhibition of human recombinant COX2 by enzyme immuno assay
T1 sequence (P35354 whole entry): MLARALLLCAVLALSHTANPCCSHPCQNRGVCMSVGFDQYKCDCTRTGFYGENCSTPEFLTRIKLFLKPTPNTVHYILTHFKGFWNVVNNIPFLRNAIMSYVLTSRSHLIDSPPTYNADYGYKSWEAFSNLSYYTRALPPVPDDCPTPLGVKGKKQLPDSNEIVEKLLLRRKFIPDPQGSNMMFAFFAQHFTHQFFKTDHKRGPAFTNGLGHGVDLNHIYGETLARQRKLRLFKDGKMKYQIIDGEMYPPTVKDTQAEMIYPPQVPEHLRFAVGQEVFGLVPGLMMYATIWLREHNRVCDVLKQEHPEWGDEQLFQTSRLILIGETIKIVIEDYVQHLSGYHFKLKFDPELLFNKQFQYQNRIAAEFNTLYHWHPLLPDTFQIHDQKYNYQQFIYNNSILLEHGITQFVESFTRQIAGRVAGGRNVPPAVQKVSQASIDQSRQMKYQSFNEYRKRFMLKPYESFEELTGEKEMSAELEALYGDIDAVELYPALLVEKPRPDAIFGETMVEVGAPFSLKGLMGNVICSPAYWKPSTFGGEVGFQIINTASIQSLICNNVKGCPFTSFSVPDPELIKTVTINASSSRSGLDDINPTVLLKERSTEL

[3] = molecular target: T2, Prostaglandin G/H synthase 1 (Ovis aries, UniProt P05979)
T2 sequence (P05979 whole entry): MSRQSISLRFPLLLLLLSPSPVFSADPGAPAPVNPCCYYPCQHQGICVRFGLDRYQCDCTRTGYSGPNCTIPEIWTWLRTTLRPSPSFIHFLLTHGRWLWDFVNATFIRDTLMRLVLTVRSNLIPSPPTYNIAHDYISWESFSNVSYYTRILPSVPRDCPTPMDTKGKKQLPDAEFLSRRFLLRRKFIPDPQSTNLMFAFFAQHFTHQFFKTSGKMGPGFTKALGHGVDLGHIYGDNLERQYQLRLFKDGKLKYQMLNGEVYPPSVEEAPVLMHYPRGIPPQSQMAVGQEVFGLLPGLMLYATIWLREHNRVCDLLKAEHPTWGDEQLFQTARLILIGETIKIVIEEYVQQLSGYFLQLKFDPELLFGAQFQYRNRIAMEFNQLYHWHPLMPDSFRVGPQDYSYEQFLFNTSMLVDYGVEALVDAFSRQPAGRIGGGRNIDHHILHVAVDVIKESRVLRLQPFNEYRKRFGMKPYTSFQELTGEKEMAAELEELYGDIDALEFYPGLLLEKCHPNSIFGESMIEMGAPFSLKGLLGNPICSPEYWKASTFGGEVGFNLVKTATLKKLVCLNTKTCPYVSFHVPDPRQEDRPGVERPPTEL
Description: Inhibition of ovine COX1 by enzyme immuno assay

Compound | pIC50 [1] | pIC50 [2] | pIC50 [3] | ED50 (Rattus norvegicus) [mg/kg]
CS(=O)(=O)c1ccc(C#Cc2ccc(=O)n(C(F)F)c2)cc1 | 5.48 | 5.29 | 4.85 | 68.5
CC(C)Cc1ccc(C(C)C(=O)O)cc1 (centres undefined) [IBUPROFEN] |  |  |  | 67.4
CS(=O)(=O)c1cccc(C#Cc2ccc(=O)n(C(F)F)c2)c1 | 5.49 | 5.43 | 4.49 | 66.1
CC(=O)Oc1ccccc1C(=O)O [ASPIRIN] |  |  |  | 129

The remaining molecules from weak to strong by pIC50 [1], led by results:

pIC50 [1] | pIC50 [2] | pIC50 [3] | Compound | ED50 (Rattus norvegicus) [mg/kg]
5.40 |  |  | O=C(O)/C=C/c1ccc(O)c(O)c1 [CAFFEIC ACID] | 
5.46 | 5.22 | 5.28 | NS(=O)(=O)c1ccc(C#Cc2ccc(=O)n(C(F)F)c2)cc1 | 86.5
5.47 | 5.03 | < 4.00 | CS(=O)(=O)c1ccccc1C#Cc1ccc(=O)n(C(F)F)c1 | > 100
